The target in one data set is T1, GHS-R (Homo sapiens, UniProt Q92847).
T1 construct: host or cells: GHS-R-expressing cells (printed 'GSH-R-expressing cells')
As to the kind of experiment: Ghrelin/GHS-R binding activity, radioligand binding using GHS-R-expressing cells (S1 Fig). As to conditions: n = 3, S1 Fig. The protocol:
Supplementary file pone.0133159.s004.tif: S1 Fig Effect of atractylodin and atractylodin carboxylic acid on ghrelin/GHS-R binding activity. Radioligand binding was performed using GSH-R-expressing cells (n = 3). (TIF) Click here for additional data file.

Data set [1] is described as follows: Dose proportionality (linearity) test by power model for C max and AUC0-last. As to conditions: for Dose proportionality test using power model, Inference: linear when 90% CI of β included 1, CIlower ≥0.8, and CIupper ≤1.25; for Dose proportionality test using power model, β: rikkunshito 2.5, 5.0 or 7.5 g.
Description: The dose proportionality was analyzed via a power model [21, 22]. […] Evaluation of linearity of the dosage-exposure relationship was conducted with Phoenix WinNonlin and SAS 9.2 (SAS Institute, Inc., Cary, NC).
Data set [2] can be described thus: Randomized crossover quantitative trial: plasma pharmacokinetics of nine ingredients after rikkunshito 2.5, 5.0 or 7.5 g. The following applies: for AUC(0-t) / Cmax / Tmax / half-life: human, plasma, po; for AUC(0-t): AUC0-last; for AUC(0-t) / Cmax / half-life / t 1/2: geometric mean (95% CI); for Cmax: C max; for Tmax: Median t max (range); for Tmax / Median t max (range): median (minimum–maximum). An excerpt:
The first trial was a nonrandomized, open-label, one-period design. The second trial was a randomized, open-label, three-arm, three-period design (Fig 1). With respect to inclusion criteria, the studies included healthy Japanese adults between 20 and 45 years of age with a body mass index between 18 and 25 who were willing and able to comply with the study requirements. Exclusion criteria for this study included a history of significant liver, heart, or vessel disease and consumption of supplements that contained any rikkunshito ingredients or any drug within 3 days to 1 week before the first dose. Other standard exclusion criteria included relevant allergies, pregnant or nursing females, and any alcohol or nicotine use. The sample size was set as more than 15 based on the Ministry of Health, Labour and Welfare’s guidelines. Subjects allocated to a screening test were randomized to one of three groups by the central allocation system (allocation ratio 1:1:1). A random sequence was generated using a computer. The safety endpoint was evaluated in all volunteers. This endpoint was defined on the basis of a physician’s judgement after examination or observation that a serious adverse event had occurred. Adverse events included death, a life-threatening event, an event requiring hospitalization for treatment or an extended stay in hospital, an event resulting in permanent or temporary disability or dysfunction, an event resulting in a congenital abnormality, or any other serious medical phenomenon. With respect to side effects, no specific conditions were defined, and all adverse events for which no causal relationship with the drug could be excluded were deemed to be side effects. In each stage during the 48-h period following rikkunshito administration, the physician monitored the patient for subjective symptoms, objective findings, swelling, body temperature (axillary), blood pressure (sitting), and pulse (sitting). The physician also conducted a hematological examination to measure the patient’s red blood cell, leucocyte and platelet counts, hemoglobin level, and hematocrit value. A biochemical examination was conducted to determine total protein, blood urea nitrogen, creatinine, uric acid, aspartate aminotransferase, alanine aminotransferase, total bilirubin, alkaline phosphatase, γ-glutamyltranspeptidase albumin, prothrombin time, total cholesterol, C-reactive protein, and potassium to identify any abnormalities in comparison with the subject’s condition prior to administration. All participants fasted for 12 h before administration and 4 h after administration of the study drug.
In the second quantitative trial, 12-mL blood samples were collected at 0 (preadministration), 0.25, 0.5, 1, 2, 3, 4, 6, 8, 10, 12, 24, and 48 h after a single oral administration of rikkunshito (Lot H05142). A total of 3 daily doses were used in this trial, i.e., the clinical dose per administration (2.5 g) as the lowest dose, the clinical daily dose (7.5 g) as the highest dose, and an intermediate dose (5.0 g), to broadly discuss the pharmacokinetic characteristics of the ingredients measured. The trial participants were hospitalized overnight on the day they ingested rikkunshito, and returned home the following day after blood samples were collected at the 24-h time point. The participants returned to the hospital to provide blood samples at 48 h. The blood was immediately centrifuged at 1700 ×g for 15 min to obtain plasma. Plasma fractions were stored at −20°C or lower until analysis.
Plasma, urine, and rikkunshito formulation samples were analyzed for rikkunshito ingredients concentrations using a liquid chromatography–mass spectrometry with tandem mass spectrometer assay (LC–MS/MS; API5000, Triple Quad 6500, or QTRAP5500; AB Sciex, Tokyo, Japan) or gas chromatography–mass spectrometry. Further information of analytical methods can be found at S1 Appendix.

The mark [3] stands for this setting: 2.5 g, rikkunshito 2.5 g single oral, n = 21.
Setting [4] is: 5 g, rikkunshito 5.0 g single oral, n = 19.
Setting [5] is: 7.5 g, rikkunshito 7.5 g single oral, n = 19.
The mark [6] stands for this setting: rikkunshito 7.5 g single oral, n = 19.
Setting [7] is: rikkunshito 7.5 g single oral, n = 19, listed as atractylodin carboxylic acid.

Usually AUC(0-t) stands for exposure summed from dosing to a finite time, without extrapolation to infinity. As usually defined, the Cmax is the highest concentration seen after dosing. What is called Tmax is the time at which the peak concentration occurs. Usually half-life stands for the time in which the quantity being followed falls by half. Low values mean fast loss, high ones slow loss.

Some results are limits rather than exact numbers.

T1 sequence (Q92847 whole entry, species assumed): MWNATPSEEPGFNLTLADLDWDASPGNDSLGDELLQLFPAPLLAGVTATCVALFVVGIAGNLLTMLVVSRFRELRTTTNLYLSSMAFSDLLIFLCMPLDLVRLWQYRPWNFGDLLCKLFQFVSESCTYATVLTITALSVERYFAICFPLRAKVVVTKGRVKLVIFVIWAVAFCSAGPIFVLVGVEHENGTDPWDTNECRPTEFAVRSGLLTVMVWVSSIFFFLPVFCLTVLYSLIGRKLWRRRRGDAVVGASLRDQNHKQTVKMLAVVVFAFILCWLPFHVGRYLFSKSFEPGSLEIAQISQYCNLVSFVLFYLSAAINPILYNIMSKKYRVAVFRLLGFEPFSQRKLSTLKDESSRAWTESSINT

In the case of `O=C(O)/C=C/C#CC#C/C=C/c1ccco1` [Atractylodin carboxylic acid], the “Ghrelin/GHS-R binding (ghrelin signal enhancement) activity compared with atractylodin” value on GHS-R was “as potent as atractylodin”. Further, the “Dose proportionality test using power model, Inference” value in data set [1] (AUC0-last) and in data set [1] (Cmax) was “Linear” in each case. In addition, the entries for the “Dose proportionality test using power model, β” value in data set [1] (AUC0-last) and in data set [1] (Cmax) were 1.08 and 1.05, respectively. The “C max of metabolite relative to unchanged form (atractylodin)” value in data set [2] (after administration of 7.5 g rikkunshito) was 5.7–31.5 fold. Further, the AUC(0-t) was found to be 3.91 ng·h/mL in data set [2] (setting [3]), 8.74 ng·h/mL in data set [2] (setting [4]) and 12.7 ng·h/mL in data set [2] (setting [5]). Further, the Cmax in data set [2] (setting [3]) is 4.45 ng/mL; in data set [2] (setting [4]), 9.57 ng/mL; in data set [2] (setting [5]) it was 14.3 ng/mL. The Tmax in data set [2] (setting [3]) and in data set [2] (setting [4]) was 15 min each time. The half-life in data set [2] (2.5 g, t 1/2, rikkunshito 2.5 g single oral, n = 21) is 34.8 min; in data set [2] (5 g, t 1/2, rikkunshito 5.0 g single oral, n = 19), 38.2 min. For the same compound, the “t 1/2” value was 0.663 (0.560–0.790) h in data set [2] (setting [6]) and under 10 h in data set [2] (setting [7]). The “Median t max (range)” value in data set [2] (setting [6]) is on record as 0.250 (0.250–0.500) h; in data set [2] (setting [7]), at most 1 h.

Values taken from article PMC4506051, “Pharmacokinetic Profiles of Active Ingredients and Its Metabolites Derived from Rikkunshito, a Ghrelin Enhancer, in Healthy Japanese Volunteers: A Cross-Over, Randomized Study” (PLoS ONE, 2015).
